Measured values taken from ChEMBL document CHEMBL5230113, “2-substituted benzothiazoles as antiproliferative agents: Novel insights on structure-activity relationships” (Eur J Med Chem, 2020).
≈ marks a conversion by molar mass, not a printed value. One block for each compound: values may come before it.

Assays:
[1] = target: Tyrosine-protein kinase ABL1 (Mus musculus, UniProt P00520); experiment: Inhibition of wild type Abl in mouse BaF3 cells; assay type: cell-based
[2] = target: Tyrosine-protein kinase ABL1 (Mus musculus, UniProt P00520, T315I); experiment: Inhibition of Abl T315I mutant in mouse BaF3 cells; assay type: cell-based
Chain of Tyrosine-protein kinase ABL1 (Mus musculus, UniProt P00520, T315I) (P00520 whole entry T315I): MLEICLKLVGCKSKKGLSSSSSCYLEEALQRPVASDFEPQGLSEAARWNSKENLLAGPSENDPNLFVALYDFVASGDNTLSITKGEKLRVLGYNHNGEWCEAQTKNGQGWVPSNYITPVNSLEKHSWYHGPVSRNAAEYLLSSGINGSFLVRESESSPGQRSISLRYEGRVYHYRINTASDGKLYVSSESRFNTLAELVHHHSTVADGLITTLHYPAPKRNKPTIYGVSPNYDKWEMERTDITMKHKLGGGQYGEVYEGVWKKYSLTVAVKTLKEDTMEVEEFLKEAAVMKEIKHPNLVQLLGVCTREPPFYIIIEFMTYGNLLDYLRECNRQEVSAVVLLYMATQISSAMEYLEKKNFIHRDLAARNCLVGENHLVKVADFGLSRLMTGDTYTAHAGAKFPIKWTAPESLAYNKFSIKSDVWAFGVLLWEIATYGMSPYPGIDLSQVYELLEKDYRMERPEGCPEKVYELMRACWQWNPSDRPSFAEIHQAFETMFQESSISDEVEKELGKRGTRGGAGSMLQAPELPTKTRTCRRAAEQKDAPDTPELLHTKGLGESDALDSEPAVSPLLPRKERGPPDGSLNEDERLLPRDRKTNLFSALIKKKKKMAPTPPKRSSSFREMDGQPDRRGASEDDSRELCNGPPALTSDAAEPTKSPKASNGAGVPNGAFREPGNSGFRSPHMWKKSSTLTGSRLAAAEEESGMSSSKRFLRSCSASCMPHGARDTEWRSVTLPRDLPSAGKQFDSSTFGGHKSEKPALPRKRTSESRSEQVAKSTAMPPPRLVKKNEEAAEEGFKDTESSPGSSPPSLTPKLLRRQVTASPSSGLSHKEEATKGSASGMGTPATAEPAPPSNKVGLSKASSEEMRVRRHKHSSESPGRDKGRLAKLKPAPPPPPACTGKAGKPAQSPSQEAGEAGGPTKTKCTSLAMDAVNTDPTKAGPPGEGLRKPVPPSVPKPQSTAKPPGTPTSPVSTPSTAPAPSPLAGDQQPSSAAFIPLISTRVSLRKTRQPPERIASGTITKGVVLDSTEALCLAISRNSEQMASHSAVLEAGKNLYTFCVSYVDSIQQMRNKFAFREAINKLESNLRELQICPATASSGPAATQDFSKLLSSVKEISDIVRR

SK-HEP1 = experiment: Cytotoxicity against human SK-HEP1 cells assessed as cell growth inhibition; assay type: functional
MDA-MB-231 = experiment: Cytotoxicity against human MDA-MB-231 cells assessed as cell growth inhibition; assay type: functional, cell-based
NUGC-3 = experiment: Cytotoxicity against human NUGC-3 cells assessed as cell growth inhibition; assay type: functional
MCF7 = experiment: Cytotoxicity against human MCF7 cells assessed as inhibition of cell growth; assay type: functional, cell-based
HepG2 = experiment: Cytotoxicity against human HepG2 cells assessed as inhibition of cell growth; assay type: functional, cell-based
C6 = experiment: Cytotoxicity against rat C6 cells assessed as inhibition of cell growth; assay type: functional, cell-based
[3] = target: Tyrosine-protein kinase ABL1 (Homo sapiens, UniProt P00519); experiment: Inhibition of wild type Abl (unknown origin)
Chain of Tyrosine-protein kinase ABL1 (Homo sapiens, UniProt P00519) (P00519 whole entry): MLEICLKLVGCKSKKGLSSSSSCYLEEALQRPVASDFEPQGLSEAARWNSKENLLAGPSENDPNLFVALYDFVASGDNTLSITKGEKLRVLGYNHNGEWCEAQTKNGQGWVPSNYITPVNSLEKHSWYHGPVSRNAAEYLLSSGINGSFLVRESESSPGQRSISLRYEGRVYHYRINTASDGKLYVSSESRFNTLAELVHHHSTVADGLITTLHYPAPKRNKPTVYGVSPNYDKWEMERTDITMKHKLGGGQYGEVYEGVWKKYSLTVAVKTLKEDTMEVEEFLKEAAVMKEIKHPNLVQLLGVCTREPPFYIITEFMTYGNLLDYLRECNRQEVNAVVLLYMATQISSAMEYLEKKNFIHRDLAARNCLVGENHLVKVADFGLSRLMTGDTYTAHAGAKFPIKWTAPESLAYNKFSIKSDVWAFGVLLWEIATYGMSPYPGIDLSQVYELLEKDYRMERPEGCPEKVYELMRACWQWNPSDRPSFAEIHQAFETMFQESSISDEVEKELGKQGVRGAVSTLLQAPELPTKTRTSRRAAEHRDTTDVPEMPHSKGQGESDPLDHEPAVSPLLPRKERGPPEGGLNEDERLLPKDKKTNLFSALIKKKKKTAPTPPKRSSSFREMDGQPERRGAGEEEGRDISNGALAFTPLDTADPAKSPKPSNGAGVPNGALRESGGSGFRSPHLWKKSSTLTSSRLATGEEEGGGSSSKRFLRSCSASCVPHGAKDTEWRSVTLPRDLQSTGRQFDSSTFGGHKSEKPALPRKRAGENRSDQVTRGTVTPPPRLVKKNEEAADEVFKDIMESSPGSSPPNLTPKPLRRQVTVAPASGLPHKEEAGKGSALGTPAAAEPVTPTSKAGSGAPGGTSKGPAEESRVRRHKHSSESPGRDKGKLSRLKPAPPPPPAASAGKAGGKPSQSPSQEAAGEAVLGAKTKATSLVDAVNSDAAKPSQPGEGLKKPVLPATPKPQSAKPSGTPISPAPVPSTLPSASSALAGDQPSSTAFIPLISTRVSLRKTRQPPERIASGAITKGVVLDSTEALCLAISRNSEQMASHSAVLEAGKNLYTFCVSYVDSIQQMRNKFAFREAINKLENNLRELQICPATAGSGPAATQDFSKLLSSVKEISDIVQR

DU-145 = experiment: Cytotoxicity against human DU-145 cells assessed as cell growth inhibition; assay type: functional
A549 = experiment: Antiproliferative activity against human A549 cells assessed as cell growth inhibition; assay type: functional, cell-based
HeLa = experiment: Antiproliferative activity against human HeLa cells assessed as cell growth inhibition; assay type: functional, cell-based
MV4-11 = experiment: Antiproliferative activity against human MV4-11 cells assessed as cell growth inhibition; assay type: functional, cell-based
DB = experiment: Antiproliferative activity against human DB cells assessed as cell growth inhibition; assay type: functional, cell-based
[4] = target: Prostaglandin G/H synthase 1 (Homo sapiens, UniProt P23219); experiment: Inhibition of COX-1 (unknown origin)
Chain of Prostaglandin G/H synthase 1 (P23219 whole entry): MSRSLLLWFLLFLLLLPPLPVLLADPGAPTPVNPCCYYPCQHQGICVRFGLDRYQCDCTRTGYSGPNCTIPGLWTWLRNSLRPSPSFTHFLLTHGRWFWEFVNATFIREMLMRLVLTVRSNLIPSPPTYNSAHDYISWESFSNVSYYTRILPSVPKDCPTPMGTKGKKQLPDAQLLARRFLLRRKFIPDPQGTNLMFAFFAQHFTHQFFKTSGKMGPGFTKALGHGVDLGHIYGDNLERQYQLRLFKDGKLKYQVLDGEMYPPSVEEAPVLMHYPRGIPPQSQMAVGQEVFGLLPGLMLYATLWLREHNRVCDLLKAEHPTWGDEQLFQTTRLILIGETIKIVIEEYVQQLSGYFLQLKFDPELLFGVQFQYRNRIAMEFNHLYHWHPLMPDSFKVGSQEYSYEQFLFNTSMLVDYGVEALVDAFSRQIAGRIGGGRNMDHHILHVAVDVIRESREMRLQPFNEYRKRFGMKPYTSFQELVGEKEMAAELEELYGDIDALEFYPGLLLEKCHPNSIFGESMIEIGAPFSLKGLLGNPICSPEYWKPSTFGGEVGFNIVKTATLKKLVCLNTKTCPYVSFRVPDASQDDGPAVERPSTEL

[5] = target: T1, Prostaglandin G/H synthase 2 (Homo sapiens, UniProt P35354); experiment: Inhibition of COX-2 (unknown origin)
T1 sequence (P35354 whole entry): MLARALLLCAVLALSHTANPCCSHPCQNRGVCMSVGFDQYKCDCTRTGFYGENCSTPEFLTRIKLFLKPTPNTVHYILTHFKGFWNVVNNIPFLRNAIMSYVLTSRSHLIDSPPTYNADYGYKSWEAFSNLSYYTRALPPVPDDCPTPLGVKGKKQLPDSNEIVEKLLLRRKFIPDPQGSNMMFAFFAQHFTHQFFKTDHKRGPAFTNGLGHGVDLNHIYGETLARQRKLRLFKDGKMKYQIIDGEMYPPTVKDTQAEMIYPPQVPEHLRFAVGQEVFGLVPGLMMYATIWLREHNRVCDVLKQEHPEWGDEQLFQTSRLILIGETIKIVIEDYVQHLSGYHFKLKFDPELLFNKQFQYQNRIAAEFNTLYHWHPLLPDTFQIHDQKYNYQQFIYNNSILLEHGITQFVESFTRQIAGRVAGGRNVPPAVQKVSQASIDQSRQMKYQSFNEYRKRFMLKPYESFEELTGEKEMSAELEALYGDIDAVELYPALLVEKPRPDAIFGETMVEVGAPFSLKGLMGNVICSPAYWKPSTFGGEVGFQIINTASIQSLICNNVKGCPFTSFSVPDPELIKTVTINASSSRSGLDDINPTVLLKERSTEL

SiHa = experiment: Antiproliferative activity against human SiHa cells assessed as cell growth inhibition; assay type: functional, cell-based
SMMC-7721 = experiment: Cytotoxicity against human SMMC-7721 cells assessed as cell growth inhibition; assay type: functional, cell-based
Tubulin = experiment: Inhibition of tubulin polymerization (unknown origin); assay type: protein-complex assay, Homo sapiens
[6] = Homo sapiens, HepG2, read-out: IC50

Chain of Tyrosine-protein kinase ABL1 (Mus musculus, UniProt P00520) (P00520 whole entry): as the sequence (P00520 whole entry T315I) above, with I315T counted along it

IC50 [1]: 89 nM
IC50 [2]: 140 nM
Structure (SMILES): COc1ccccc1-c1ccc2nc(NC(=O)NCCO)sc2c1

Structure (SMILES): Cc1cc(C)c2sc(NC(=O)c3ccc([N+](=O)[O-])cc3)nc2c1
GI50 (SK-HEP1): 290 nM
GI50 (MDA-MB-231): 290 nM
GI50 (NUGC-3): 290 nM

Structure (SMILES): O=C(CN1CCOCC1)Nc1ccc(-c2nc3ccccc3s2)cc1
IC50 (MCF7): 10 nM
IC50 (MDA-MB-231): 8 nM

Structure (SMILES): Cc1nc(SCC(=O)Nc2nc3ccc(Cl)cc3s2)n(Nc2ccc([N+](=O)[O-])cc2)c1C
IC50 (HepG2; hepg2): > 500 µg/mL

Structure (SMILES): Cc1ccc(Nn2c(SCC(=O)Nc3nc4ccc(F)cc4s3)nc(C)c2C)cc1
IC50 (C6): 16.3 µg/mL (≈ 37 µM)
IC50 (HepG2; hepg2): 31.7 µg/mL

IC50 [3]: 0.06 nM
IC50 [1]: 3570 nM
IC50 [2]: 2140 nM
Structure (SMILES): CCNC(=O)Nc1nc2ccc(-c3ccccc3OC)cc2s1

Structure (SMILES): O=C(CNS(=O)(=O)c1cc(Cl)ccc1Cl)N1CCN(c2nc3ccccc3s2)CC1
CC50 (HepG2; Homo sapiens, HepG2): 8000 nM
CC50 (DU-145): 9000 nM

IC50 (A549): 5420 nM
IC50 (HeLa): 15000 nM
IC50 (MV4-11): 7510 nM
Structure (SMILES): O=C(Nc1cccc(-c2nc3ccccc3s2)c1)c1cccnc1
IC50 (MCF7): 15000 nM
IC50 (HepG2; [6]): 15000 nM
IC50 (DB): 15000 nM

GI50 (A549): 200 nM
GI50 (HeLa): 200 nM
Structure (SMILES): Cc1ccc(N2CCN(CC(=O)Nc3ccc(-c4nc5ccccc5s4)cc3)CC2)cc1
GI50 (MDA-MB-231): 200 nM

IC50 (A549): 12300 nM
IC50 [4]: 9560 nM
IC50 [5]: 100 nM
Structure (SMILES): CC1=NN(c2ccccc2)C(=O)/C1=N/Nc1cccc(-c2nc3ccccc3s2)c1
IC50 (MCF7): 12300 nM

IC50 [1]: 46 nM
IC50 [2]: 78 nM
Structure (SMILES): COc1ccccc1-c1ccc2nc(NC(=O)NCCN3CCN(C)CC3)sc2c1

Structure (SMILES): COc1ccc(Cl)cc1C(=O)Nc1ccc(-c2nc3ccccc3s2)cc1
IC50 (SiHa): 6130 nM

GI50 (A549): 200 nM
GI50 (HeLa): 200 nM
Structure (SMILES): Clc1cccc(-n2cc(CNc3ccc(-c4nc5ccccc5s4)cc3)nn2)c1
GI50 (MDA-MB-231): 200 nM

Structure (SMILES): Cc1ccc2nc(N/N=C/c3cccnc3Nc3ccccc3)sc2c1
IC50 (MCF7): 1690 nM

IC50 (A549): > 25000 nM
IC50 [4]: 9560 nM
IC50 [5]: 100 nM
Structure (SMILES): CC1=NNC(=O)/C1=N/Nc1cccc(-c2nc3ccccc3s2)c1
IC50 (MCF7): > 25000 nM

Structure (SMILES): Cc1nc(SCC(=O)Nc2nc3ccccc3s2)n(Nc2ccc([N+](=O)[O-])cc2)c1C
IC50 (C6): 24.3 µg/mL (≈ 53.5 µM)
IC50 (HepG2; hepg2): 28.7 µg/mL

Structure (SMILES): Cc1ccc2nc(NC(=O)CSc3nc(C)c(C)n3Nc3ccc([N+](=O)[O-])cc3)sc2c1
IC50 (C6): 15.7 µg/mL (≈ 33.4 µM)

IC50 (A549): 12300 nM
IC50 [4]: 9560 nM
IC50 [5]: 100 nM
Structure (SMILES): CC(=O)N1N=C(C)/C(=N\Nc2cccc(-c3nc4ccccc4s3)c2)C1=O
IC50 (MCF7): 12300 nM

Structure (SMILES): N=C(N)N/N=C/c1cn(-c2nc3ccc(Oc4ccc(F)cc4)cc3s2)nc1-c1ccccc1
IC50 (MCF7): 2230 nM
IC50 (MDA-MB-231): 2410 nM
IC50 (HepG2; [6]): 3750 nM
IC50 (SMMC-7721): 2310 nM

Structure (SMILES): O=C(CNS(=O)(=O)c1ccc(Cl)cc1)N1CCN(c2nc3ccccc3s2)CC1
CC50 (DU-145): 8000 nM

Structure (SMILES): COc1ccc(CN(C(=O)CSc2nc3ccccc3s2)c2cc(OC)c(OC)c(OC)c2)cc1O
IC50 (Tubulin): 1900 nM

Structure (SMILES): CN1CCN(CC(=O)Nc2ccc(-c3nc4ccccc4s3)cc2)CC1
IC50 (MCF7): 10 nM
IC50 (MDA-MB-231): 8 nM
